In patent publication US20260000656A1, “ANTIFUNGAL AGENTS WITH ENHANCED ACTIVITY IN ACIDIC PH” (Scynexis, Inc., priority 2017, published 2026):
Values after ≈ are worked out from the molar mass of the structure shown. Like-named read-outs stand apart in the source and are kept apart here.

Tested on: C. albicans isolates
Assay: Broth microdilution susceptibility (CLSI M27-A3) at different medium pH
Type: cell-based, Candida albicans
Conditions: Candida albicans, 24 h; for MIC50: read-out: MIC50; for MIC90: read-out: MIC90
Experimental: Ten strains each of C. glabrata and C. albicans vaginal isolates were tested. The strains were obtained from recent clinical trial patients with vulvovaginal candidiasis (VVC) prior to treatment. Candida strains were obtained from the Mycology Reference Library (MRL) at Case Western Reserve University School of Medicine, Ohio, United States.
Susceptibility testing was performed using a broth microdilution method, according to CLSI M27-A3 guidelines (CLSI. 2008. Reference Method for Broth Dilution Antifungal Susceptibility Testing of Yeasts; Approved Standard—Third Edition. Clinical and Laboratory Standards Institute, CLSI document M27-A3). Antifungals and concentrations tested were SCY-078 and micafungin (both at concentrations within the range of 0.015 to 8 μg/ml) and fluconazole (at concentrations within the range of 0.125 to 64 μg/ml). A 0.1-ml C. albicans and C. glabrata inoculum of 0.5-2.5×10^3 blastospores/ml in RPMI 1640 medium was added to each microdilution well. ATCC strains of Candida parapsilosis and Candida krusei QC isolates were also included concurrently to ensure quality control. Antifungal susceptibility testing was carried out for each isolate in RPMI 1640 at pH 7 (to mimic RPMI medium used in testing the susceptibility of yeast by the CLSI M-27A3 document), pH 5.7, and pH 4.5 (to mimic the pH of the vaginal cavity) by adjusting the pH of the media using NaOH or HCl. […] Agents Chemother., 43: 1383-1386 (1999).
[…] SCY-078 powder was manufactured by Avista, Laboratories, NC. Micafungin and fluconazole were sourced from LGM Pharma.

[1] = pH 7, 50% inhibition, pH 7.0, 24 h, 10 vaginal isolates
[2] = pH 7, 100% inhibition, pH 7.0, 24 hours, 10 isolates

MIC (pH 5.72, C. albicans MRL 34372, pH 5.72, 24 hours, read-out: MIC (50% inhibition)): 0.25 µg/mL (≈ 0.342 µM)
MIC (pH 5.72, C. albicans MRL 34372, pH 5.72, 24 hours, read-out: MIC (100% inhibition)): 0.25 µg/mL (≈ 0.342 µM)
MIC (pH 5.72, C. albicans MRL 34373, pH 5.72, 24 hours, read-out: MIC (50% inhibition)): 0.25 µg/mL (≈ 0.342 µM)
MIC (pH 5.72, C. albicans MRL 34373, pH 5.72, 24 hours, read-out: MIC (100% inhibition)): 0.25 µg/mL (≈ 0.342 µM)
MIC (pH 5.72, C. albicans MRL 34374, pH 5.72, 24 hours, read-out: MIC (50% inhibition)): 0.125 µg/mL (≈ 0.171 µM)
MIC (pH 5.72, C. albicans MRL 34374, pH 5.72, 24 hours, read-out: MIC (100% inhibition)): 0.25 µg/mL (≈ 0.342 µM)
MIC (pH 5.72, C. albicans MRL 34385, pH 5.72, 24 hours, read-out: MIC (50% inhibition)): 0.25 µg/mL (≈ 0.342 µM)
MIC (pH 5.72, C. albicans MRL 34385, pH 5.72, 24 hours, read-out: MIC (100% inhibition)): 0.5 µg/mL (≈ 0.685 µM)
MIC (pH 5.72, C. albicans MRL 34389, pH 5.72, 24 hours, read-out: MIC (50% inhibition)): 0.25 µg/mL (≈ 0.342 µM)
MIC (pH 5.72, C. albicans MRL 34389, pH 5.72, 24 hours, read-out: MIC (100% inhibition)): 0.25 µg/mL (≈ 0.342 µM)
MIC (pH 5.72, C. albicans MRL 34399, pH 5.72, 24 hours, read-out: MIC (50% inhibition)): 0.25 µg/mL (≈ 0.342 µM)
MIC (pH 5.72, C. albicans MRL 34399, pH 5.72, 24 hours, read-out: MIC (100% inhibition)): 0.25 µg/mL (≈ 0.342 µM)
MIC (pH 5.72, C. albicans MRL 34408, pH 5.72, 24 hours, read-out: MIC (50% inhibition)): 0.25 µg/mL (≈ 0.342 µM)
MIC (pH 5.72, C. albicans MRL 34408, pH 5.72, 24 hours, read-out: MIC (100% inhibition)): 2 µg/mL (≈ 2.74 µM)
MIC (pH 5.72, C. albicans MRL 34449, pH 5.72, 24 hours, read-out: MIC (50% inhibition)): 0.25 µg/mL (≈ 0.342 µM)
MIC (pH 5.72, C. albicans MRL 34449, pH 5.72, 24 hours, read-out: MIC (100% inhibition)): 0.25 µg/mL (≈ 0.342 µM)
MIC50 [1]: 0.25 µg/mL (≈ 0.342 µM)
MIC90 [1]: 0.5 µg/mL (≈ 0.685 µM)
MIC50 [2]: 0.25 µg/mL (≈ 0.342 µM)
MIC90 [2]: 0.5 µg/mL (≈ 0.685 µM)
MIC (pH 7, C. albicans MRL 34366, pH 7.0, 24 hours, read-out: MIC (50% inhibition)): 0.5 µg/mL (≈ 0.685 µM)
MIC (pH 7, C. albicans MRL 34366, pH 7.0, 24 hours, read-out: MIC (100% inhibition)): 0.5 µg/mL (≈ 0.685 µM)
MIC (pH 7, C. albicans MRL 34367, pH 7.0, 24 hours, read-out: MIC (50% inhibition)): 0.125 µg/mL (≈ 0.171 µM)
MIC (pH 7, C. albicans MRL 34367, pH 7.0, 24 hours, read-out: MIC (100% inhibition)): 0.5 µg/mL (≈ 0.685 µM)
MIC (pH 7, C. albicans MRL 34372, pH 7.0, 24 hours, read-out: MIC (50% inhibition)): 0.25 µg/mL (≈ 0.342 µM)
MIC (pH 7, C. albicans MRL 34372, pH 7.0, 24 hours, read-out: MIC (100% inhibition)): 0.25 µg/mL (≈ 0.342 µM)
MIC (pH 7, C. albicans MRL 34373, pH 7.0, 24 hours, read-out: MIC (50% inhibition)): 0.25 µg/mL (≈ 0.342 µM)
MIC (pH 7, C. albicans MRL 34373, pH 7.0, 24 hours, read-out: MIC (100% inhibition)): 0.25 µg/mL (≈ 0.342 µM)
MIC (pH 7, C. albicans MRL 34374, pH 7.0, 24 hours, read-out: MIC (50% inhibition)): 0.25 µg/mL (≈ 0.342 µM)
MIC (pH 7, C. albicans MRL 34374, pH 7.0, 24 hours, read-out: MIC (100% inhibition)): 0.25 µg/mL (≈ 0.342 µM)
MIC (pH 7, C. albicans MRL 34385, pH 7.0, 24 hours, read-out: MIC (50% inhibition)): 0.25 µg/mL (≈ 0.342 µM)
MIC (pH 7, C. albicans MRL 34385, pH 7.0, 24 hours, read-out: MIC (100% inhibition)): 0.5 µg/mL (≈ 0.685 µM)
MIC (pH 7, C. albicans MRL 34389, pH 7.0, 24 hours, read-out: MIC (50% inhibition)): 0.125 µg/mL (≈ 0.171 µM)
MIC (pH 7, C. albicans MRL 34389, pH 7.0, 24 hours, read-out: MIC (100% inhibition)): 0.25 µg/mL (≈ 0.342 µM)
MIC (pH 7, C. albicans MRL 34399, pH 7.0, 24 hours, read-out: MIC (50% inhibition)): 0.25 µg/mL (≈ 0.342 µM)
MIC (pH 7, C. albicans MRL 34399, pH 7.0, 24 hours, read-out: MIC (100% inhibition)): 0.25 µg/mL (≈ 0.342 µM)
MIC (pH 7, C. albicans MRL 34408, pH 7.0, 24 hours, read-out: MIC (50% inhibition)): 0.5 µg/mL (≈ 0.685 µM)
MIC (pH 7, C. albicans MRL 34408, pH 7.0, 24 hours, read-out: MIC (100% inhibition)): 4 µg/mL (≈ 5.48 µM)
MIC (pH 7, C. albicans MRL 34449, pH 7.0, 24 hours, read-out: MIC (50% inhibition)): 0.25 µg/mL (≈ 0.342 µM)
MIC (pH 7, C. albicans MRL 34449, pH 7.0, 24 hours, read-out: MIC (100% inhibition)): 0.5 µg/mL (≈ 0.685 µM)
Structure (SMILES): CC(C)[C@@H](C)[C@@]1(C)CC[C@]2(C)[C@H]3CC[C@@H]4[C@@]5(COC[C@]4(C)[C@@H](OC[C@](C)(N)C(C)(C)C)[C@H](n4ncnc4-c4ccncc4)C5)C3=CC[C@@]2(C)[C@@H]1C(=O)O [SCY-078]
